Source: US20140179681A1, “METHODS AND COMPOSITIONS OF TARGETED DRUG DEVELOPMENT” (priority 2010, published 2014)
Where two headings read alike, the source gives them in different places.

Columns and labels:
[1] = test system: epithelial carcinoma A431 cell line; test: MTT Cell Proliferation Assay, A431 cells; assay type: cell-based; conditions: for IC50: Homo sapiens, A-431, Table 11
How it was run: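 Each concentration ran in quadruplicate across duplicate plates, with compounds serially diluted in DMSO and delivered at 0.5% DMSO in 0.5% FBS medium for 3 days.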

[2] = target: T1, EGF binding site (Rattus norvegicus, UniProt G3V6K6); test: Inhibition of [125I]EGF binding (EGF inhibitor assay, NovaScreen); conditions: determined at 25 μM; rat liver membranes; result in words
T1 construct: Receptor source was rat liver membranes; tissue NovaScreen BioSciences; host or cells: rat liver membranes
Procedure: Identified compounds, representing various pharmacophore models, were tested for ability to inhibit EGFR at 25 μM.
AD4-compounds were identified using pharmacophore models (see Example 3, Example 4) and then were docked with the binding site of EGFR (SEQ ID NO: 1) that is recognized by defined CDRs of cetuximab. The inhibition of epidermal growth factor binding by AD4-compounds was then determined (NovaScreen BioSciences, Hanover, Md.). Inhibition of EGF binding was determined at 25 μM concentration.
Receptor source was rat liver membranes. The radioligand was [^125I]EGF ([…]) at a final ligand concentration of 0.36 nM. A non-specific determinant was used as EGF—[100 nM]. The reference compound and positive control was EGF. Reactions were carried out in 10 mM HEPES (pH 7.4) containing 0.1% BSA at 25° C. for 60 minutes. The reaction was terminated by rapid vacuum filtration onto glass fiber filters. Radioactivity trapped onto the filters was determined and compared to control values to ascertain any interactions of test compounds with the EGF binding site. The EGF inhibitor assays were modified from, for example, Mukku (1984) J. Biol. Chem. 259, 6543-6546; Duh et al. (1990) World J. Surgery 14, 410-418; Lokeshwar et al. (1989) J. Biol. Chem. 264(32), 19318-19326.

T1 sequence (G3V6K6 25-1209): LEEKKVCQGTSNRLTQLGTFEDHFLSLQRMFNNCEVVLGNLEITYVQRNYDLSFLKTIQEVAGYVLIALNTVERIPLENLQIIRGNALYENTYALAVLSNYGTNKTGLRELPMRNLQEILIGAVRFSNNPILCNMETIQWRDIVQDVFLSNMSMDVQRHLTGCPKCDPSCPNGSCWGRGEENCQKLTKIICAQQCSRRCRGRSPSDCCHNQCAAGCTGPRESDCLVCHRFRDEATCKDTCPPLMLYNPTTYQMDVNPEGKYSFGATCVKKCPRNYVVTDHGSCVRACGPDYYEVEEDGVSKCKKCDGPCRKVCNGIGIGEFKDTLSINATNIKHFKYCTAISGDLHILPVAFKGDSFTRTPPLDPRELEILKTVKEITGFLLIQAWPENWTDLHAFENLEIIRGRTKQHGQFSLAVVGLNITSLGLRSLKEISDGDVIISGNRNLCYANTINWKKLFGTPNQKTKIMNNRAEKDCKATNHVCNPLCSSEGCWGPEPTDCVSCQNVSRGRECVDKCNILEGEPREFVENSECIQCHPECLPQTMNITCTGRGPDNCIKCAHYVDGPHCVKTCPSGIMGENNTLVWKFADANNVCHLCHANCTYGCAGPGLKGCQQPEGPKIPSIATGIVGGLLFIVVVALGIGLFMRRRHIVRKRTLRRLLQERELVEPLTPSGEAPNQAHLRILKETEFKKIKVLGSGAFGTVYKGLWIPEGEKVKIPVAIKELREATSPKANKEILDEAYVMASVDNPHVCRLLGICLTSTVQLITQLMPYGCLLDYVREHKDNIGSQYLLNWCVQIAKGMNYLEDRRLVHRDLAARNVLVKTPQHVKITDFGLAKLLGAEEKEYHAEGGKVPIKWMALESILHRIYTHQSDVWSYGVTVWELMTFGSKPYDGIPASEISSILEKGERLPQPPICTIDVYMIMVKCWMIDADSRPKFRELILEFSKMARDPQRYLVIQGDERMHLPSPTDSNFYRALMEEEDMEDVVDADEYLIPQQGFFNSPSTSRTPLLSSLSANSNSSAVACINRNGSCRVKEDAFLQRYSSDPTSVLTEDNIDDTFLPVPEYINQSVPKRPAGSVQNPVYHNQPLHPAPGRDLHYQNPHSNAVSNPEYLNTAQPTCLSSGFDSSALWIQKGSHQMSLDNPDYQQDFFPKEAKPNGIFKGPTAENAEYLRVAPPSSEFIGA

| IC50 ([1]; first of x/y(ratio): A431, unit inferred, read-out: MTT Follow-up (first value)) [µM] | IC50 ([1]; first of x/y(ratio): A431, unit not printed (doses in μM), read-out: MTT Screen (first value)) [µM] | SMILES | activity in A431 ([1]; standard at 23.5 μM final concentration) | activity in A431 ([1]; standard at 31.125 μM final concentration) [%] | inhibition of epidermal growth factor binding to its receptor [2] | MTT assay (first value) ([1]; Table 10, first of x/y(ratio): A431, three day treatment, unit not printed (doses in μM)) |
| --- | --- | --- | --- | --- | --- | --- |
| 22.1 | 22.8 | CCc1cc2c(CN3CCN(Cc4ccc5c(c4)OCO5)CC3)cc(=O)oc2cc1O [AD4-1734] | less than 100% | 100 | inhibitor of epidermal growth factor binding to its receptor |  |
|  |  | Cc1cc(C)cc(NS(=O)(=O)c2ccc(NC(=S)Nc3ccccc3)cc2)c1 [AD4-11091] |  |  | inhibitor of epidermal growth factor binding to its receptor | non-convergent |
